Values of other authors, collected in patent US20190000808A1, “COMPOSITION AND METHODS FOR THE TREATMENT OF BLEPHOPHAROPTOSIS” (Allergan, Inc., priority 2015, published 2019).

Columns and labels:
[1] = system: alpha-1 adrenergic receptors on Muller's muscle; conditions: single drop, typically 2.5%; temporary reversal of ptosis

In the case of `CC[C@@H]1C(=O)OC[C@@H]1Cc1cncn1C` [Pilocarpine, (3S,4R)-3-Ethyl-4((1-methyl-1H-imidazol-5-yl)methyl)dihydrofuran-2(3H)-one], the tolerability (accommodation of the eye; topical concentrations above 0.5%, side effects red eyes, ocular pain, brow ache, headache) is listed as “not tolerated” and the “effect on accommodation of the eye” value (accommodation of the eye; topical concentrations below 0.5%) is listed as “minimal effect”.
For `CNC[C@H](O)c1cccc(O)c1` [phenylephrine], the eyelid elevation [1] is given as “causes eyelid elevation”.
